How the values were obtained:
PIP4K2A = target: T1, PIP4K2A (Homo sapiens, UniProt P48426); test: ADP-glo kinase assay PIP4K 2A (Table 3); format: biochemical; parameters: made in house; host or cells: E. coli; conditions: compounds listed under IC50 bins
T1 sequence (P48426 1-406): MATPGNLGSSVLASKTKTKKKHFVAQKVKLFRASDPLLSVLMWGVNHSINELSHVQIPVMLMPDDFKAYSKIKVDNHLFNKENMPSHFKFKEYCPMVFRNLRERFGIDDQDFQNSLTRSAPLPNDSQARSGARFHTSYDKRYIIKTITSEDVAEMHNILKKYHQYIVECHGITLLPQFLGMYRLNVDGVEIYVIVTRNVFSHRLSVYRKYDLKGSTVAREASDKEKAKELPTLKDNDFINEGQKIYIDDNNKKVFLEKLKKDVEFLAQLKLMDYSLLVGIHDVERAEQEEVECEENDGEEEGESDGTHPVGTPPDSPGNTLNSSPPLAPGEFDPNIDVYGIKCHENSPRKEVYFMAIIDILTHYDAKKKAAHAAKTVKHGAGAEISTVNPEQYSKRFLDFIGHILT
Method: Dilution series of the compounds were prepared in DMSO at 100 times the final assay concentration (n1=n0/3 in 10 points). The compounds were further diluted to three times the assay concentration in assay buffer (20 mM MOPS pH 7.2, 25 mM magnesium chloride, 0.005% Tween 20). 6 μL of the diluted compounds were added to a 384 well assay plate followed by 9 μL of a mix consisting of 4 nM PIP4K2A (full length protein, SignalChem) and 100 μM PI(5)P diC8 (Tebu-Bio). Enzyme and compounds were pre-incubated at room temperature for 15 minutes.
Then 3 μL of a solution containing 60 μM ATP (Promega) in assay buffer was added to the wells containing compound and enzyme and mixing was performed by pipetting several times. The reaction was incubated at room temperature for 1 h. Then 18 μL of ADP-Glo™ Reagent (Promega) was added to stop the kinase reaction and deplete the unconsumed ATP, mixing was performed by pipetting several times. The plate was incubated at room temperature for 40 minutes before addition of 36 μL of Kinase Detection Reagent (Promega) to convert ADP to ATP and introduce luciferase and luciferin to detect ATP. The reaction was incubated at room temperature for 40 minutes before the luminescence was measured in a in a Victor 3V 1420 multilabel counter (Perkin Elmer).
Percent inhibition of the compounds as compared to dimethyl sulfoxide treated control samples was calculated. Compound concentration versus percent inhibition were fitted to generate IC50 values. […]

PIP4K2B = target: T2, PIP4K2B (Homo sapiens, UniProt P78356); test: Trans-FI P kinase assay PIP4K2B (Table 4); format: biochemical; conditions: compounds listed under IC50 bins; read-out: Trans-FI P kinase assays: PIP4K2B IC50
T2 construct: made in house; host or cells: E. coli
T2 sequence (P78356 1-416): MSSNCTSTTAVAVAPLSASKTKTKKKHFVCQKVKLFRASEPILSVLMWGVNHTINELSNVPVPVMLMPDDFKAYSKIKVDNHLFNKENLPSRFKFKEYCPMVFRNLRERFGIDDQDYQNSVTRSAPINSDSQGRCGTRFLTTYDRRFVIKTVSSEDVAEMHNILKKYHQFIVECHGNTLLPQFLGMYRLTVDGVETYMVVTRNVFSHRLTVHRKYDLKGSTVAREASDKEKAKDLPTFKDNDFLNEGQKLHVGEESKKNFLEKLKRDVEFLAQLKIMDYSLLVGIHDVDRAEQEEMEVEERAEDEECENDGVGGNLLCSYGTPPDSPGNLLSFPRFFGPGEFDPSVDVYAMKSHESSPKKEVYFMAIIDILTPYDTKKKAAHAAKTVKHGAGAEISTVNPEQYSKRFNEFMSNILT
Summary of the method: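 Transcreener FI detection (Ex 584/Em 623) of GDP, converted via calibration curve, gives IC50 from residual activity versus log concentration (highest 4.8 μM). Reaction: 80 μM PI5P plus DOPE carrier, 100 μM GTP, 5 nM GST-tagged enzyme, pH 7.3 HEPES with MgCl2 and 5% DMSO, 2 h after 1 h enzyme-compound preincubation at 27° C.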

| Compound | IC50 (PIP4K2A) [nM] | IC50 (PIP4K2B) [nM] |
| --- | --- | --- |
| Cc1cc(N2CCCC2=O)ccc1-c1cnc(Nc2cnc3c(c2)N2C(=O)CC[C@H]2CO3)nc1 [Example 198, (S)-2-((5-(2-methyl-4-(2-oxopyrrolidin-1-yl)phenyl)pyrimidin-2-yl)amino)-6,6a,7,8-tetrahydro-9H-pyrido[2,3-b]pyrrolo[1,2-d][1,4]oxazin-9-one] | 1 to 10 | 1 to 10 |
| Nc1nc(Nc2cnc3c(c2)N2C(=O)CC[C@H]2CO3)ncc1-c1ccc(N2CCCC2=O)cc1 [Example 199, (S)-2-((4-amino-5-(4-(2-oxopyrrolidin-1-yl)phenyl)pyrimidin-2-yl)amino)-6,6a,7,8-tetrahydro-9H-pyrido[2,3-b]pyrrolo[1,2-d][1,4]oxazin-9-one] | 1 to 10 | 1 to 10 |
| COCc1cc(Nc2cnc3c(c2)N2C(=O)C4(CC4)C[C@H]2CO3)ncc1-c1ccc(N2CCCC2=O)cc1 [Example 207, (S)-2′-((4-(methoxymethyl)-5-(4-(2-oxopyrrolidin-1-yl)phenyl)pyridin-2-yl)amino)-6a′,7′-dihydro-6′H,9′H-spiro[cyclopropane-1,8′-pyrido[2,3-b]pyrrolo[1,2-d][1,4]oxazin]-9′-one] | 1 to 10 | 1 to 10 |
| CC(C)c1cc(Nc2cnc3c(c2)N2C(=O)C4(CC4)C[C@H]2CO3)ncc1-c1ccc(N2CCCC2=O)cc1 [Example 210, (S)-2′-((4-isopropyl-5-(4-(2-oxopyrrolidin-1-yl)phenyl)pyridin-2-yl)amino)-6a′,7′-dihydro-6′H,9′H-spiro[cyclopropane-1,8′-pyrido[2,3-b]pyrrolo[1,2-d][1,4]oxazin]-9′-one] | ≤ 1 | 1 to 10 |
| O=C1CCCN1c1ccc(-c2cnc(Nc3cnc4c(c3)N3C(=O)C5(CC5)C[C@H]3CO4)cc2C2CC2)cc1 [Example 211, (S)-2′-((4-cyclopropyl-5-(4-(2-oxopyrrolidin-1-yl)phenyl)pyridin-2-yl)amino)-6a′,7′-dihydro-6′H,9′H-spiro[cyclopropane-1,8′-pyrido[2,3-b]pyrrolo[1,2-d][1,4]oxazin]-9′-one] | ≤ 1 | 1 to 10 |
| O=C([C@@H]1CCOC1)N1CCN(c2cncc(Nc3ccc(-c4ccc(N5CCCC5=O)cc4)cn3)c2)CC1 [Example 244, (R)-1-(4-(6-((5-(4-(tetrahydrofuran-3-carbonyl)piperazin-1-yl)pyridin-3-yl)amino)pyridin-3-yl)phenyl)pyrrolidin-2-one] | 100 to 1000 | 10 to 100 |
| O=C([C@H]1CCOC1)N1CCN(c2cncc(Nc3ccc(-c4ccc(N5CCCC5=O)cc4)cn3)c2)CC1 [Example 245, (S)-1-(4-(6-((5-(4-(tetrahydrofuran-3-carbonyl)piperazin-1-yl)pyridin-3-yl)amino)pyridin-3-yl)phenyl)pyrrolidin-2-one] | 100 to 1000 | 10 to 100 |
| O=C(Nc1cncc(Nc2ccc(-c3ccc(N4CCCC4=O)cc3)cn2)c1)C1CC1c1ccccc1 (stereo not drawn) [Example 247, N-(5-((5-(4-(2-oxopyrrolidin-1-yl)phenyl)pyridin-2-yl)amino)pyridin-3-yl)-2-phenylcyclopropane-1-carboxamide] | 1 to 10 | 10 to 100 |
| CCOc1ccc(C(=O)Nc2cncc(Nc3ccc(-c4ccc(N5CCCC5=O)cc4)cn3)c2)cn1 [Example 249, 6-ethoxy-N-(5-((5-(4-(2-oxopyrrolidin-1-yl)phenyl)pyridin-2-yl)amino)pyridin-3-yl)nicotinamide] | 1 to 10 | 10 to 100 |

The remaining lines, values ahead:

| IC50 (PIP4K2A) [nM] | IC50 (PIP4K2B) [nM] | Compound |
| --- | --- | --- |
| ≤ 1 | 1 to 10 | COc1nc(Nc2cnc3c(c2)N2C(=O)C4(CC4)C[C@H]2CO3)ncc1-c1ccc(N2CCCC2=O)cc1 [Example 200, (S)-2′-((4-methoxy-5-(4-(2-oxopyrrolidin-1-yl)phenyl)pyrimidin-2-yl)amino)-6a′,7′-dihydro-6′H,9′H-spiro[cyclopropane-1,8′-pyrido[2,3-b]pyrrolo[1,2-d][1,4]oxazin]-9′-one] |
| 1 to 10 | 1 to 10 | Cc1nc(Nc2cnc3c(c2)N2C(=O)C4(CC4)C[C@H]2CO3)ncc1-c1ccc(N2CCCC2=O)cc1 [Example 201, (S)-2′-((4-methyl-5-(4-(2-oxopyrrolidin-1-yl)phenyl)pyrimidin-2-yl)amino)-6a′,7′-dihydro-6′H,9′H-spiro[cyclopropane-1,8′-pyrido[2,3-b]pyrrolo[1,2-d][1,4]oxazin]-9′-one] |
| 1 to 10 | 1 to 10 | Cc1cc(N2CCCC2=O)ccc1-c1cnc(Nc2cnc3c(c2)N2C(=O)C4(CC4)C[C@H]2CO3)nc1 [Example 203, (S)-2′-((5-(2-methyl-4-(2-oxopyrrolidin-1-yl)phenyl)pyrimidin-2-yl)amino)-6a′,7′-dihydro-6′H,9′H-spiro[cyclopropane-1,8′-pyrido[2,3-b]pyrrolo[1,2-d][1,4]oxazin]-9′-one] |
| 1 to 10 | 1 to 10 | Nc1nc(Nc2cnc3c(c2)N2C(=O)C4(CC4)C[C@H]2CO3)ncc1-c1ccc(N2CCCC2=O)cc1 [Example 204, (S)-2′-((4-amino-5-(4-(2-oxopyrrolidin-1-yl)phenyl)pyrimidin-2-yl)amino)-6a′,7′-dihydro-6′H,9′H-spiro[cyclopropane-1,8′-pyrido[2,3-b]pyrrolo[1,2-d][1,4]oxazin]-9′-one] |
| 1 to 10 | 1 to 10 | O=C1CCCN1c1ccc(-c2cnc(Nc3cnc4c(c3)N3C(=O)C5(CC5)C[C@H]3CO4)nc2)cc1 [Example 205, (S)-2′-((5-(4-(2-oxopyrrolidin-1-yl)phenyl)pyrimidin-2-yl)amino)-6a′,7′-dihydro-6′H,9′H-spiro[cyclopropane-1,8′-pyrido[2,3-b]pyrrolo[1,2-d][1,4]oxazin]-9′-one] |
| 1 to 10 | 10 to 100 | Cc1cc(Nc2cnc3c(c2)N2C(=O)C4(CC4)C[C@H]2CO3)ncc1-c1ccc(N2CCCC2=O)cc1 [Example 206, (S)-2′-((4-methyl-5-(4-(2-oxopyrrolidin-1-yl)phenyl)pyridin-2-yl)amino)-6a′,7′-dihydro-6′H,9′H-spiro[cyclopropane-1,8′-pyrido[2,3-b]pyrrolo[1,2-d][1,4]oxazin]-9′-one] |
| 10 to 100 | 10 to 100 | Cc1cc(N2CCCC2=O)ccc1-c1ccc(Nc2cnc3c(c2)N2C(=O)C4(CC4)C[C@H]2CO3)nc1 [Example 208, (S)-2′-((5-(2-methyl-4-(2-oxopyrrolidin-1-yl)phenyl)pyridin-2-yl)amino)-6a′,7′-dihydro-6′H,9′H-spiro[cyclopropane-1,8′-pyrido[2,3-b]pyrrolo[1,2-d][1,4]oxazin]-9′-one] |
| ≤ 1 | 1 to 10 | COc1cc(Nc2cnc3c(c2)N2C(=O)C4(CC4)C[C@H]2CO3)ncc1-c1ccc(N2CCCC2=O)cc1 [Example 212, (S)-2′-((4-methoxy-5-(4-(2-oxopyrrolidin-1-yl)phenyl)pyridin-2-yl)amino)-6a′,7′-dihydro-6′H,9′H-spiro[cyclopropane-1,8′-pyrido[2,3-b]pyrrolo[1,2-d][1,4]oxazin]-9′-one] |
| ≤ 1 | 1 to 10 | CC(C)c1nc(Nc2cnc3c(c2)N2C(=O)C4(CC4)C[C@H]2CO3)ncc1-c1ccc(N2CCCC2=O)cc1 [Example 216, (S)-2′-((4-isopropyl-5-(4-(2-oxopyrrolidin-1-yl)phenyl)pyrimidin-2-yl)amino)-6a′,7′-dihydro-6′H,9′H-spiro[cyclopropane-1,8′-pyrido[2,3-b]pyrrolo[1,2-d][1,4]oxazin]-9′-one] |

— patent US11667651B2, “Aminopyridine derivatives as phosphatidylinositol phosphate kinase inhibitors” (HiberCell, Inc., priority 2017, dated 2023)
